Results: patent publication US20170071928A1, “METHODS AND PHARMACEUTICAL COMPOSITIONS FOR TREATING DISEASES ASSOCIATED WITH ALTERED SERT ACTIVITY” (THE TRUSTEES OF COLUMBIA UNIVESITY IN THE CITY OF NEW YORK, priority 2014, published 2017)
Like-named read-outs stand apart in the source and are kept apart here.

Tests used:
[1] = system: ENCDC isolated from E15 fetal mouse gut; assay: Development/survival of enteric neurons from cultured ENCDC isolated from E15 fetal mouse gut; format: cell-based; settings: ENCDC culture; for development/survival of early-born (calretinin) neurons / development/survival of late-born enteric neurons that express TH or GABA / effect on development/survival of late-born neurons compared with total neurons / development/survival of total enteric neurons: serum-free media; for development/survival of early-born (calretinin) neurons / development/survival of late-born enteric neurons that express TH or GABA / effect on development/survival of late-born neurons compared with total neurons: 2.5 μM; for development/survival of total enteric neurons: prucalopride 2.5 μM, BIMU-8 2.5 μM
Method: Immunocytochemistry was performed as follows: HuC/D, TH, g-aminobutyric acid (GABA), nNOS, and CGRP were located immunocytochemically to determine the abundance of total, dopaminergic, GABAergic, nitrergic and CGRP-expressing enteric neurons in G56A mice and their respective WT littermates. SERT immunoreactivity was also investigated to determine whether or not it is coincident with TH immunoreactivity in the myenteric plexus. In each experimental group, tissue samples were collected from ilea of 6-8 animals, fixed with 4% formaldehyde for 1.5 hours and washed in PBS. Whole mount preparations of longitudinal muscle with attached myenteric plexus (LMMP) were prepared by dissection. Cultured cells were fixed with 4% formaldehyde for 30 minutes and washed in PBS. Preparations were blocked with 10% normal horse serum for 30 minutes at room temp and then incubated for 48 or 72 hours at 4° C. with primary antibodies. Bound primary antibodies were visualized, respectively, with streptavidin-Alexa 594 for mouse monoclonal antibodies, and donkey antibodies to goat, rabbit, or sheep IgG coupled to Alexa 350, 488 or 594 (diluted 1:200; Invitrogen). Preparations were washed with PBS, mounted in buffered glycerol, and examined with a Leica CTR 6000 microscope. Images were obtained with a cooled CCD camera and analyzed with computer assistance (Volocity 5.4 imaging software; Improvision, Waltham, Mass.). To count the numbers of HuC/D-immunoreactive cells in each LMMP preparation, a motorized stage under computer control was used to scan and collect images with a 40× objective covering the entirety of a 10 mm^2 area. To count the numbers of CGRP-, nNOS- and TH-immunoreactive cells a similar procedure was used, except that images were collected with a 20× objective and that an area of 30 mm^2 was scanned. The higher magnification was needed for HuC/D-immunoreactive cells to be certain that overlapping cells could be distinguished. The lower magnification was advantageous for TH-immunoreactive cells, which are widely separated and relatively rare, because the cells were scattered and large numbers could be imaged for statistical reliability. The collected images were processed using a computer running Volocity 5.6 software to determine the numbers of immunoreactive cells of each type, which were presented as cells/mm^2. TH-immunoreactive terminal axons in the myenteric plexus of ileum of four G56A SERT and four WT mice were examined to study the effects of G56A SERT on the density of extrinsic sympathetic terminals. Sympathetic axons are far more abundant that dopaminergic axons in the myenteric plexus. Their large varicosities and coarse structure also distinguish sympathetic from dopaminergic axons. Dopaminergic neurons, moreover, are primarily located in the submucosal plexus. In each preparation, 3 images were obtained with a 40× objective. The total area occupied by TH-immunoreactive terminals in each image was obtained with computer assistance (Volocity 5.6 software; Improvision, Perkin Elmer).
The hypothesis was tested that 5-HT-promoted enteric neurogenesis is 5-HT4-mediated. The responsible receptor was also sought. ENCDC were isolated from E15 fetal mouse gut with antibodies to p75NTR and cultured in serum-free media. […] The 5-HT4 antagonist, GR113808 (1.0 μM), prevented 5-HT, prucalopride, or BIMU-8 from enhancing development/survival of total dopaminergic or GABAergic neurons.

WT mice = assay: GI motility in mature offspring after prenatal and nursing prucalopride treatment, WT mice; format: in vivo, mouse; settings: prucalopride treatment of fetal and nursing mice
Method: (§1) Carmine red, which cannot be absorbed from the lumen of the gut, was used to study total GI transit time (Kimball et al., 2005). A solution of carmine red (300 μl; 6%; Sigma Aldrich, St. Louis, Mo.) suspended in 0.5% methylcellulose (Sigma Aldrich, St. Louis, Mo.) was administered by gavage through a 21-gauge round-tip feeding needle. The time at which gavage took place was recorded as TO. After gavage, fecal pellets were monitored at 10 minutes intervals for the presence of carmine red. Total GI transit time was considered as the interval between TO and the time of first observance of carmine red in stool.
(§2) Colonic motility was studied as previously described (Li et al., 2006). Briefly, the animals were anesthetized with isoflurane (Baxter Pharmaceutical Products Inc, Deerfield, Ill.). A glass bead (3 mm in diameter) was pushed into the colon to a distance of 2 cm from the anal verge. The time required for expulsion of the glass bead was measured and taken as an estimate of colonic motility.
(§3) The dose of prucalopride was 24 mg into 350 ml of water and the mice were assumed to drink about 5 ml/day. After birth, the prucalopride was continued in the drinking water, and was thus delivered to the newborn and suckling pups via breast milk. When the pups were weaned, the prucalopride was stopped; therefore, the exogenous 5-HT4 stimulation was allowed to cease. […]

[2] = system: wild-type adult mice and mice lacking 5-HT4 receptors; settings: cited from earlier work
G56A mice [3] = assay: GI motility in mature offspring after prenatal and nursing prucalopride treatment, G56A mice; format: in vivo, mouse; settings: prucalopride oral in dams' drinking water (24 mg in 350 ml) from early pregnancy until weaning, then stopped
Method: as §1, §2, §3

G56A mice [4] = assay: Small intestinal transit (rhodamine B dextran geometric center) with exogenous 5-HT; format: in vivo, mouse; settings: G56A mice compared to WT mice (FIG. 2D)
Method: For analysis of gastric emptying and small intestinal transit, mice were fasted overnight in cages that lacked bedding. Water was withdrawn 3 hours before the experiment. A solution containing rhodamine B dextran (100 μl; 10 mg/ml in 2% methylcellulose, Invitrogen, Carlsbad, Calif.) was administered to each mouse by gavage through a 21-gauge round-tip feeding needle. Animals were euthanized 15 minutes after gavage; the stomach, small intestine, cecum, and colon were collected in 0.9% NaCl. The small intestine was divided into 10 segments of equal length and the colon (used to obtain total recovered rhodamine B fluorescence) was divided in half. […] Rhodamine fluorescence was measured in 1 ml aliquots of the supernatant (VersaFluor™ Fluorometer; BIO-RAD Laboratories, Hercules, Calif.). The proportion of the Rhodamine B dextran that emptied from the stomach was calculated as [(total recovered fluorescence−fluorescence remaining in the stomach)/(total recovered fluorescence)]×100.
Small intestinal transit was estimated by the position of the geometric center of the Rhodamine B dextran in the small bowel (Miller et al., 1981). For each segment of the small intestine (1-10), the geometric center (a) was calculated as: a=(fluorescence in each segment×number of the segment)/(total fluorescence recovered in the small intestine). […]

| SMILES | antagonism of the enhancement by 5-HT, prucalopride or BIMU-8 of development/survival of total dopaminergic or GABAergic neurons ([1]; GR113808 1.0 μM) | development/survival of early-born (calretinin) neurons [1] | development/survival of late-born enteric neurons that express TH or GABA [1] | effect on development/survival of late-born neurons compared with total neurons [1] | development/survival of total enteric neurons [1] | GI motility in the mature animals (WT mice) | enteric neurogenesis ([2]; adult mice lacking 5-HT4 receptors) | enteric neurogenesis ([2]; wild-type adult mice) | GI motility in offspring at ages 2-3 months (G56A mice [3]) | ability to accelerate small intestinal transit (G56A mice [4]) |
| --- | --- | --- | --- | --- | --- | --- | --- | --- | --- | --- |
| Cn1cc(C(=O)OCC2CCN(CCNS(C)(=O)=O)CC2)c2ccccc21 [GR113808] | prevented | – | – | – | – | – | – | – | – | – |
| COCCCN1CCC(NC(=O)c2cc(Cl)c(N)c3c2OCC3)CC1 [prucalopride] | – | Neither prucalopride nor BIMU-8 enhanced | increased development/survival | significantly greater than on total | enhanced the development/survival of total enteric neurons | not found to exert significant effects | not in those lacking 5-HT4 receptors | stimulate enteric neurogenesis | restored to normal | – |
| CC(C)n1c(=O)n(C(=O)NC2CC3CCC(C2)N3C)c2ccccc21 (stereo not drawn) [BIMU-8] | – | Neither prucalopride nor BIMU-8 enhanced | increased development/survival | significantly greater than on total | enhanced the development/survival of total enteric neurons | – | – | – | – | – |
| NCCc1c[nH]c2ccc(O)cc12 [5-HT, 5-hydroxytryptamine] | – | – | – | – | enhanced the development/survival of total enteric neurons | – | – | – | – | impaired |
